Test results: PubChem BioAssay (NCI)
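Results reflect a 48-hour exposure of cells in 96-well plates to compound at five concentrations. The concentration for 50% growth inhibition is given as GI50. TGI denotes the concentration required for complete inhibition of growth.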

Assays:
Test in all cases: NCI anticancer screen, dose series, 48 h
[1] = test system: DU-145 prostate
[2] = test system: OVCAR-3 ovarian
[3] = test system: CCRF-CEM leukemia
[4] = test system: UO-31 renal
[5] = test system: HS 578T breast
[6] = test system: SW-620 colon
[7] = test system: NCI-H460 lung
[8] = test system: NCI-H226 lung
[9] = test system: OVCAR-5 ovarian
[10] = test system: EKVX NSCLC

Row | SMILES | GI50 [1] | TGI [1] | GI50 [2] | TGI [2] | GI50 [3] | TGI [3] | GI50 [4] | TGI [4] | GI50 [5] | TGI [5] | GI50 [6] | TGI [6] | GI50 [7] | TGI [7] | GI50 [8] | TGI [8] | GI50 [9] | TGI [9] | TGI [10] | GI50 [10]
1 | C=CC[P+](c1ccccc1)(c1ccccc1)c1ccccc1 | 7.33 µM | > 100 µM | 1.99 µM | > 100 µM | 3.4 µM | > 100 µM | 84 µM | > 100 µM | 10.1 µM | > 100 µM | 5.64 µM | > 100 µM | 4.54 µM | > 100 µM | 5.88 µM | > 100 µM | 13.4 µM | > 100 µM |  | 
2 | CC(C)(C)CC(C)(C)c1cc2c(O)c(c1)Cc1cc(C(C)(C)CC(C)(C)C)cc(c1O)Cc1cc(C(C)(C)CC(C)(C)C)cc(c1O)Cc1cc(C(C)(C)CC(C)(C)C)cc(c1O)Cc1cc(C(C)(C)CC(C)(C)C)cc(c1O)Cc1cc(C(C)(C)CC(C)(C)C)cc(c1O)C2 |  |  |  | > 100 µM |  | > 100 µM |  | > 100 µM |  |  |  | > 100 µM |  | > 100 µM |  |  |  | > 100 µM | > 100 µM | 
3 | Cn1cc(C2=C(c3cccnc3)C(=O)NC2=O)c2ccccc21 | > 25 µM | > 25 µM | 15 µM | > 25 µM | 10.5 µM | > 25 µM | > 25 µM | > 25 µM | 8.14 µM | > 25 µM | > 25 µM | > 25 µM | > 23.1 µM | > 25 µM | 8.15 µM | > 19.2 µM | > 25 µM | > 25 µM |  | 
4 | C=CC(C)(O)/C=C/C=C(\C)C(CC1OC1(C)C)OC(=O)/C(C)=C\C (configuration not stated) |  | > 100 µM |  | > 100 µM |  |  |  | > 100 µM |  | > 100 µM |  | > 100 µM |  | > 100 µM |  |  |  | > 100 µM | > 100 µM | 
5 | CN=C(NC#N)NCCSCc1nc[nH]c1C |  | > 100 µM |  | > 100 µM |  | > 100 µM |  | > 100 µM |  | > 100 µM |  | > 100 µM |  | > 100 µM |  | > 100 µM |  | > 100 µM |  | 
6 | COc1ccc2c(c1)[n+]([O-])c(-c1ccccc1)c(N)[n+]2[O-] |  |  |  | > 100 µM |  | > 100 µM |  | > 100 µM |  |  |  | > 100 µM |  | > 100 µM |  | > 100 µM |  | > 100 µM | > 100 µM | 
7 | COC(=O)C1=C(C(=O)OC)C23CC1C1C(C(=O)OC)=C(C(=O)OC)C12C1C=CC3C2C(=O)OC(=O)C21 (configuration not stated) |  |  |  | 17.6 µM |  | > 100 µM |  | > 100 µM |  |  |  | > 100 µM |  | > 100 µM |  |  |  | > 100 µM | > 100 µM | 
8 | Oc1ccc(O)c(-c2cc(-c3ccccc3)nn2-c2ccccc2)c1 |  |  | 22.8 µM | > 100 µM |  |  | 38.6 µM | > 100 µM | 19.6 µM | 68 µM | 26 µM | > 100 µM | 24.8 µM | > 100 µM | 18.7 µM | 51.4 µM | 10.6 µM | 27 µM | 37.7 µM | 16.9 µM
9 | CN[C@@H](C)[C@@H](N)c1ccccc1 |  |  |  | > 100 µM |  | > 100 µM |  | > 100 µM |  |  |  | > 100 µM |  | > 100 µM |  | > 100 µM |  |  | > 100 µM | 
10 | CC(=O)c1c(C)n(C)c2c1nnc1ccccc12 |  | > 100 µM |  | > 100 µM |  | > 100 µM |  | 8.11 µM |  | > 100 µM |  | > 100 µM |  | > 100 µM |  | > 100 µM |  |  | 50.3 µM | 
